Assay results reported in patent publication US6900336B2, “8-aza-11-deoxy prostaglandin analogues” (Syntex (U.S.A.) LLC, priority 2001, dated 2005).
pKi: −log10 of the molar value.

Assays:
EP2 Receptor = molecular target: T1, EP2 Receptor (Homo sapiens, UniProt P43116); test: EP2 Ki (table under competitive [3H]PGE2 binding assay)
T1 construct: host or cells: unnamed cultured cells, membrane fraction

rEP3 Receptor = molecular target: T2, rEP3 Receptor (UniProt P34980); test: Competitive Binding Assay of [3H]PGE2 to rEP3 Receptor; details: 3 nM [3H]PGE2, membrane fraction, 1 hr at 30° C.; read-out: EP3, Ki
T2 sequence (P34980 1-365): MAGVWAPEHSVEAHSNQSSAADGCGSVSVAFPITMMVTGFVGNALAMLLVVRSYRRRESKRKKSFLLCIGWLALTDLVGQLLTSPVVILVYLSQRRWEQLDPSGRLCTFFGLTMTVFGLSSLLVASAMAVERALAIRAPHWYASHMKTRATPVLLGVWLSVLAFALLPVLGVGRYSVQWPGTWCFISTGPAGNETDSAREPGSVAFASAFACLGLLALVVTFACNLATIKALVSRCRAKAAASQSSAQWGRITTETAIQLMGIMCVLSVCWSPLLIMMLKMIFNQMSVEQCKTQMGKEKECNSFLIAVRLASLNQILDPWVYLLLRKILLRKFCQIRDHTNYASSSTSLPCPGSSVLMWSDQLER
Experimental: (§1) Competitive Binding Assay of [^3H]PGE2 to rEP1 or rEP3 Receptor
(§2) The cells were maintained in culture then harvested upon confluency. […] Incubations were conducted for 1 hr at 30° C. prior to separation of the bound and free radioligand by rapid filtration. Residual [^3H]PGE2 bound to the filter was quantitated by liquid scintillation counting. The Ki of a compound was calculated by the program of one site binding calculation of Prism.

EP4 Receptor = molecular target: T3, EP4 Receptor (Homo sapiens, UniProt P35408); test: EP4 Ki (table under competitive [3H]PGE2 binding assay)
T3 construct: host or cells: unnamed cultured cells, membrane fraction
T3 sequence (P35408 whole entry): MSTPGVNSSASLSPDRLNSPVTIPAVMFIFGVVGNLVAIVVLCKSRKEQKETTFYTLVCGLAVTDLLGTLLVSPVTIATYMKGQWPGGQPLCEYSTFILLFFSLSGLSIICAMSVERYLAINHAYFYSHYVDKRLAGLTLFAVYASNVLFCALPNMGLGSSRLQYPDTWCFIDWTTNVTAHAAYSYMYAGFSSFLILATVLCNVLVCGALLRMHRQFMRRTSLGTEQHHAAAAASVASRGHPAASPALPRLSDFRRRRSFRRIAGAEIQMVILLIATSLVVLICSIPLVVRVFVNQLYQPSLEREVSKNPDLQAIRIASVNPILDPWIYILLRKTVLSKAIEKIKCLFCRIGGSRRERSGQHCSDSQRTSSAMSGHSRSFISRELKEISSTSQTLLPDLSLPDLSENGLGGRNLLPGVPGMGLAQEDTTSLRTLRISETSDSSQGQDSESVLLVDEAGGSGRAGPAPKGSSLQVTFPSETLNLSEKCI
Experimental: [Worded in the source for another target; this target is reported under the same test.] as §1
as §2, with “confluency. The membrane was prepared by two times of centrifugation (12,000× g for 15 min) following lysis of cells by polytron homogenization of 15 sec. in 10 volume of 20 mM Hepes pH 7.4 containing 1 mM EDTA, 10 mM MgCl2, 20 uM indomethacin at 4° C.” for “confluency.”

rEP1 Receptor = molecular target: T4, rEP1 Receptor (UniProt P70597); test: Competitive Binding Assay of [3H]PGE2 to rEP1 Receptor; details: 3 nM [3H]PGE2, membrane fraction, 1 hr at 30° C.; read-out: EP1, Ki
T4 sequence (P70597 1-405): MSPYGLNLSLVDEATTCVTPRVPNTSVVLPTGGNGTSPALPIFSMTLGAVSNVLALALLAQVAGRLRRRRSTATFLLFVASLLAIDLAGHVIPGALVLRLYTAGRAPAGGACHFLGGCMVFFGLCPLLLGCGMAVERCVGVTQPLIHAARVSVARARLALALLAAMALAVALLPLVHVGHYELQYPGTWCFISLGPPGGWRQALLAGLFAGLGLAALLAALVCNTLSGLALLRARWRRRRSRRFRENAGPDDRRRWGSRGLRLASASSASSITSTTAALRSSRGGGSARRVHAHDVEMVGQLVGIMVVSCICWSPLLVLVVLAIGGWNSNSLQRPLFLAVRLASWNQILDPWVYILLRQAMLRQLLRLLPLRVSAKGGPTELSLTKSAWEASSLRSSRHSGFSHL
Experimental: as §1
as §2, with “confluency. The membrane was prepared by two times of centrifugation (12,000× g for 15 min) following lysis of cells by polytron homogenization of 15 sec. in 10 volume of 20 mM Hepes pH 7.4 containing 1 mM EDTA, 10 mM MgCl2, 20 uM indomethacin at 4° C.” for “confluency.”

T1 sequence (P43116 whole entry): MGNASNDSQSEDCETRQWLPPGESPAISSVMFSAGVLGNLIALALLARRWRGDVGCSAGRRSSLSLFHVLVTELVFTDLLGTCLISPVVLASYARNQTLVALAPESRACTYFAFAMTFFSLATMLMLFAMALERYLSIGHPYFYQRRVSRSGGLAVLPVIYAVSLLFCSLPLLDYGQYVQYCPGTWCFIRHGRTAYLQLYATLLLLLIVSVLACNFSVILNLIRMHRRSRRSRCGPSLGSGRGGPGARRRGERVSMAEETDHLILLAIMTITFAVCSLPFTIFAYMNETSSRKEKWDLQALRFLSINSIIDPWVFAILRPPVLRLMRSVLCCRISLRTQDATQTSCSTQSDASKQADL

Row | pKi (rEP1 Receptor) | SMILES | pKi (EP2 Receptor) | pKi (rEP3 Receptor) | pKi (EP4 Receptor)
1 |  | O=C(O)CCCCCCN1C(=O)CC[C@@H]1/C=C/C(O)c1cccc(Oc2ccc(Cl)cc2)c1 (stereo partly drawn) [Compound 74, 7-((R)-2-{(E)-3-[3-(4-chloro-phenoxy)-phenyl]-3-hydroxy-propenyl}-5-oxo-pyrrolidin-1-yl)-heptanoic acid] | 4.64 | 4.33 | 8.00
2 |  | Cc1cc(Cl)ccc1-c1cccc([C@H](O)CC[C@H]2CCC(=O)N2CCc2ccc(C(=O)O)cc2)c1 [Compound 81, 4-(2-{(S)-2-[(R)-3-(4′-Chloro-2′-methyl-biphenyl-3-yl)-3-hydroxy-propyl]-5-oxo-pyrrolidin-1-yl}-ethyl)-benzoic acid] | 5.29 | 4.27 | 9.03
3 | < 4.00 | CC1(C)C[C@H](/C=C/C(O)c2ccc(C(F)(F)F)o2)N(CCCCCCC(=O)O)C1=O (stereo partly drawn) [Compound 55, 7-{(R)-5-[(E)-3-hydroxy-3-(5-trifluoromethyl-furan-2-yl)-propenyl]-3,3-dimethyl-2-oxo-pyrrolidin-1-yl}-heptanoic acid] | < 4.00 | < 4.00 | 8.15
4 |  | CCCCC[C@H](O)/C=C/[C@H]1CCC(=O)N1CCc1ccc(C(=O)O)cc1 [Compound 76, 4-{2-[(R)-2-((E)-3-Hydroxy-oct-1-enyl)-5-oxo-pyrrolidin-1-yl]-ethyl}-benzoic Acid] | 6.89 | 4.96 | 8.92
5 |  | COCc1cccc(CC(O)/C=C/[C@H]2CC(C)(C)C(=O)N2CCCCCCC(=O)O)c1 (stereo partly drawn) [Compound 59, 7-{(R)-5-[(E)-3-Hydroxy-4-(3-methoxymethyl-phenyl)-but-1-enyl]-3,3-dimethyl-2-oxo-pyrrolidin-1-yl}-heptanoic acid] | < 4.00 | < 4.00 | 7.15
6 |  | CCCCCC(O)/C=C/[C@H]1CCC(=O)N1CCc1ccc(C(=O)O)s1 (stereo partly shown) [Compound 82] | 5.43 | < 4.00 | 7.16
